{"source": "paper PMC7941644", "about": "“Identification and Development of Therapeutics for COVID-19” (ArXiv, 2021)", "origin": "cited, not measured here", "tested_on": "SARS-CoV-2", "data": [{"smiles": "CCC(CC)COC(=O)[C@H](C)N[P@](=O)(OC[C@H]1O[C@@](C#N)(c2ccc3c(N)ncnn23)[C@H](O)[C@@H]1O)Oc1ccccc1", "note": "[remdesivir]", "values": [{"measurement": "inhibition of SARS-CoV-2 in vitro", "value": "inhibit SARS-CoV-2, showing synergy with CQ in vitro"}]}]}
